According to patent US12178800B2, “Sulforaphane-melatonin-like compound” (priority 2018, dated 2024):

How the values were obtained:
[1] = system: nuclear factor (NF)-κB; test: NF-κB immunohistochemistry of irradiated skin; format: in vivo, Gottingen mini-pigs
Description: After incubation in normal horse serum for 60 min to prevent nonspecific binding, the skin sections were incubated with mouse anti-nuclear factor (NF)-κB (sc-109, 1:200; Santa Cruz Biotechnology, Santa Cruz, CA, USA) and mouse anti-COX-2 (18-7379, 1:200; Zymed, USA) in phosphate buffered saline-Tween (PBS-T overnight at 4° C. The sections were subsequently incubated with biotinylated horse anti-mouse IgG (VECTASTAIN Elite ABC Kit; Vector Laboratories, USA). The immunoreactivity was assessed using the avidin-biotin peroxidase complex (VECTASTAIN Elite ABC Kit; Vector Laboratories). The peroxidase reaction was developed using a diaminobenzidine substrate kit (DAB Substrate Kit SK-4100; Vector Laboratories). As a control, the primary antibodies were omitted from the immunohistochemical analysis of a few test sections in each experiment. The sections were then counterstained with hematoxylin before being mounted.

[2] = Topical carbopol gel formulation: permeability and skin irritation; conditions: pH 6.8
Description: A formulation in accordance with embodiments of the present invention appropriate for topical administration was obtained by adding 200 mg of carbopol (Carbopol 934P; Lubrizol, USA) to 2.5 mL of distilled water and solubilizing 200 mg of 6OHM-6-HITC in 2 mL of ethanol. An appropriate amount of the ethanolic dispersion was transferred to the aqueous dispersion of carbopol. Methanol (1.25 mL) was mixed with 1 mL of ethanol and added to the 6OHM-6-HITC and carbopol mixture, which was gradually stirred, and carbopol was allowed to soak for 2 h. Triethanolamine (100 mg; Sigma-Aldrich, USA) was added to neutralize the carbopol solution and facilitate the formation of a gel, after which the pH was adjusted to 6.8. A vehicle cream was prepared using the same ingredients and identical methods as the cream, but 6OHM-6-HITC was omitted from the mixture. […] For topical treatment, 6OHM-6-HITC or the vehicle cream (concentration, 200 mg/cm^2) was spread on the irradiated skin of pigs twice daily for 35 days, and the first application was performed immediately after irradiation.

[3] = system: ICR mice; test: X-ray-induced oral mucositis in mice: survival and behaviour; format: in vivo
Description: In a second example for illustrating embodiments of the present invention, six-week-old ICR mice (30-40 g) obtained from Institute of Animal Breeding and Genetics, University of Gottingen, Germany were used. The animals were housed in a room maintained at 22±2° C. under a 12-h light-dark cycle with lights on at 7:00 a.m. Mice were fed a standard rodent diet and had free access to water. In addition, no antibiotic supplements were used. All animal experiments were performed in compliance to The German Animal Welfare Act. The mice (n=20 per group) were anesthetized (pentobarbital sodium, 50 mg/kg body weight, i.p.) and then irradiated. Mice had to be irradiated only at the tip of the tongue, so the rest of the body was shielded with a lead device (thickness, 0.5 mm). The tongue was fixed to the outer surface of the lead device using adhesive tape and irradiated with a single radiation dose of 20 Gy. Radiation was generated using a 150 kV potential (20 mA) X-ray source at a focal distance of 350 mm and beam-hardened by a 1.0-mm aluminum filtration system (MBR-1520R-3; Hitachi, Tokyo, Japan). The dose rate was 5.1 Gy/min. The 6OHM-6-HITC compound was dissolved in a small volume of 1 M NaOH solution. The pH was adjusted to 7 with 1 M HCL. […] The body weight was recorded and the tongues were observed daily after irradiation. […]

[4] = system: biopsy wound; test: Healing of biopsy wounds in irradiated skin; format: in vivo, Gottingen mini-pigs; conditions: biopsy wound 3 days after irradiation
[5] = system: peripheral blood; test: Peripheral blood counts after focal irradiation; format: in vivo, Gottingen mini-pigs
Description: Blood samples were collected via the ear vein into sample tubes containing ethylenediaminetetraacetic acid at different time points (before irradiation, 3, 7, 21, and 35 days after irradiation). Peripheral eosinophils were automatically counted using a Hemavet System (Drew Scientific, UK).

[6] = system: mouse tongues; test: Histopathology (H&E) of tongue specimens after X-ray irradiation; format: in vivo, ICR mice; conditions: 12 days post-irradiation
[7] = 21 and 35 days after irradiation, decrease not significant

What does the source list for `COc1cc2c(CCCCN=C=S)c[nH]c2cc1O` [6OHM-6-HITC]?
NF-κB expression in irradiated skin vs. vehicle-treated irradiated skin ([1]; 7, 21 and 35 days after irradiation): lower; nuclear NF-κB expression ([1]; irradiated skin, treated): rapidly decreased; permeability of 6OHM-6-HITC from topical gel formulation [2]: highest permeability; skin irritation by topical gel formulation [2]: without causing skin irritation; behavioral disorders ([3]; 300 mg/kg i.p.): not observed; survival after X-ray irradiation ([3]; 30 and 300 mg/kg i.p. 30 min before 20 Gy irradiation of the tongue): significant difference in survival was not found; healing of the biopsy wound [4]: attenuated the radiation-induced delayed healing; eosinophils in the blood [5, 7]: decreased; neutrophils in the blood [5, 7]: decreased; radioprotective effect on peripheral blood (white blood cell count) ([5]; initially (7 days after exposure)): did not show a radioprotective effect; degree of epidermolysis of the tongue [6]: preserved; infiltration of inflammatory cells [6]: decreased
